Among the data in ChEMBL document CHEMBL5634092, “Design, synthesis, and biological evaluation of novel HDAC/CD13 dual inhibitors for the treatment of cancer” (Eur J Med Chem, 2023) are IC50 and Stability values, retold here.

The target of series [1] is T1, Protein deacetylase HDAC6 (Homo sapiens, UniProt Q9UBN7).
T1 sequence (Q9UBN7 whole entry): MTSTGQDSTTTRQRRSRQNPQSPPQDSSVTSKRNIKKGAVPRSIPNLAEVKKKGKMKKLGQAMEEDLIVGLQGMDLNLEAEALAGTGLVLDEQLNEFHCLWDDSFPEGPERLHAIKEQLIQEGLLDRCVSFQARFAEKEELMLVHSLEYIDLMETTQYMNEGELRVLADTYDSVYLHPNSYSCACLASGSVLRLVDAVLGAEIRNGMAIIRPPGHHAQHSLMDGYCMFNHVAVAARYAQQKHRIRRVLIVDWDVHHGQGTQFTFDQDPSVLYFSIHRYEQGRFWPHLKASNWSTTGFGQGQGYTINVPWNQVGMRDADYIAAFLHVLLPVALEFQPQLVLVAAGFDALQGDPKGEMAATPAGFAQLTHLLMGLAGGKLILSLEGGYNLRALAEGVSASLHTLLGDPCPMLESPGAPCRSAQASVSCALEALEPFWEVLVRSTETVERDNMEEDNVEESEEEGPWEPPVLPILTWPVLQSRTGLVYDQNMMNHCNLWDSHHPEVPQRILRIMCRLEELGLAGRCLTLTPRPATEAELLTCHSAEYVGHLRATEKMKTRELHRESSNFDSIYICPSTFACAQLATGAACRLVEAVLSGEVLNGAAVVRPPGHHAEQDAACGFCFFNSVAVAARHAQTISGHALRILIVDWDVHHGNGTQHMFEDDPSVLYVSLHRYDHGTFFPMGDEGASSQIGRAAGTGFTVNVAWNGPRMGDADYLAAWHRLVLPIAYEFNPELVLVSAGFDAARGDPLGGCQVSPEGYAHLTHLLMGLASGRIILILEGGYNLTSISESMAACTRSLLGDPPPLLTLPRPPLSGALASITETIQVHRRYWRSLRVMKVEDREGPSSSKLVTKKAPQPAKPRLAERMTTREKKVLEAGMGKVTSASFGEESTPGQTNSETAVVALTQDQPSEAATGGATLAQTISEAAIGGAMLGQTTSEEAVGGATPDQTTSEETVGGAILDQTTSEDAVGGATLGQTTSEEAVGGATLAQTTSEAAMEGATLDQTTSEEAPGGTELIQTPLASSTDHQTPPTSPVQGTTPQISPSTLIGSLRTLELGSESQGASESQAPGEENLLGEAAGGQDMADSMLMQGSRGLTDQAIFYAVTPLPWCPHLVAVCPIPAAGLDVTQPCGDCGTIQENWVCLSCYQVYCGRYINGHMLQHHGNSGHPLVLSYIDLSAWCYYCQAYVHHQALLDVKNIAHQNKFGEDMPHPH
In words: Inhibition of human HDAC6 using Boc-Lys (acetyl)-AMC as substrate incubated for 1 hr followed by substrate addition and further incubated for 2 hrs by fluorescence assay.

For a further series, the target named is T2, Histone deacetylase 7 (Homo sapiens, UniProt Q8WUI4).
T2 sequence (Q8WUI4 whole entry): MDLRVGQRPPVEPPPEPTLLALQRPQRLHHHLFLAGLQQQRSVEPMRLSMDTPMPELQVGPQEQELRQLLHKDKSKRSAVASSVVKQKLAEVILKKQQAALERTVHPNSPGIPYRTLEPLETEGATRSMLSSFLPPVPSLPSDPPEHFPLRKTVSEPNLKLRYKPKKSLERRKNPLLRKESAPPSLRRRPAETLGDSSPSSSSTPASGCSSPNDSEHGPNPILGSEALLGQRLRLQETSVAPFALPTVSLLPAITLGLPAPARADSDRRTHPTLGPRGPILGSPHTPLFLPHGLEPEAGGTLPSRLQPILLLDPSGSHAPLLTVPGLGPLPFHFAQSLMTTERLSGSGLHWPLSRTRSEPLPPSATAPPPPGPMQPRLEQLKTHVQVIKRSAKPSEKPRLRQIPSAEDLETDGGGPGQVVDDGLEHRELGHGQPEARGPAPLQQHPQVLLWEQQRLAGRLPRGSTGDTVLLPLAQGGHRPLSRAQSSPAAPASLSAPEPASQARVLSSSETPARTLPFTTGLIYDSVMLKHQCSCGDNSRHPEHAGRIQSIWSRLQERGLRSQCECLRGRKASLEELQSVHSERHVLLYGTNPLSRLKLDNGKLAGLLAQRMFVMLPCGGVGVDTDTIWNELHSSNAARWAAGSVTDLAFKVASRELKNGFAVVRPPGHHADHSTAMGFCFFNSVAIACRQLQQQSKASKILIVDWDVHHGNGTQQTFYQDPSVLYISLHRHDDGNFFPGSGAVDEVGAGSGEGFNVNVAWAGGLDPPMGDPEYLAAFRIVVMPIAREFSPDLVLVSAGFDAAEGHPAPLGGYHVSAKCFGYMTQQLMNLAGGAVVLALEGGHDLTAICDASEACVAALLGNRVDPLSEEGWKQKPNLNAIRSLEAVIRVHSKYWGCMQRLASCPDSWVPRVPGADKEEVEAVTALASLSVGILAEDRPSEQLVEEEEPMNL
Description: Inhibition of human HDAC7 using Boc-Lys (tri-fluoroacetyl)-AMC as substrate incubated for 1 hr followed by substrate addition and further incubated for 2 hrs by fluorescence assay.

The target of a further series is Aminopeptidase N (Homo sapiens, UniProt P15144). In words: Inhibition of human CD13 using L-leucine-p-nitroanilide as substrate incubated for 30 mins by microplate reader analysis.
Chain of Aminopeptidase N (P15144 whole entry): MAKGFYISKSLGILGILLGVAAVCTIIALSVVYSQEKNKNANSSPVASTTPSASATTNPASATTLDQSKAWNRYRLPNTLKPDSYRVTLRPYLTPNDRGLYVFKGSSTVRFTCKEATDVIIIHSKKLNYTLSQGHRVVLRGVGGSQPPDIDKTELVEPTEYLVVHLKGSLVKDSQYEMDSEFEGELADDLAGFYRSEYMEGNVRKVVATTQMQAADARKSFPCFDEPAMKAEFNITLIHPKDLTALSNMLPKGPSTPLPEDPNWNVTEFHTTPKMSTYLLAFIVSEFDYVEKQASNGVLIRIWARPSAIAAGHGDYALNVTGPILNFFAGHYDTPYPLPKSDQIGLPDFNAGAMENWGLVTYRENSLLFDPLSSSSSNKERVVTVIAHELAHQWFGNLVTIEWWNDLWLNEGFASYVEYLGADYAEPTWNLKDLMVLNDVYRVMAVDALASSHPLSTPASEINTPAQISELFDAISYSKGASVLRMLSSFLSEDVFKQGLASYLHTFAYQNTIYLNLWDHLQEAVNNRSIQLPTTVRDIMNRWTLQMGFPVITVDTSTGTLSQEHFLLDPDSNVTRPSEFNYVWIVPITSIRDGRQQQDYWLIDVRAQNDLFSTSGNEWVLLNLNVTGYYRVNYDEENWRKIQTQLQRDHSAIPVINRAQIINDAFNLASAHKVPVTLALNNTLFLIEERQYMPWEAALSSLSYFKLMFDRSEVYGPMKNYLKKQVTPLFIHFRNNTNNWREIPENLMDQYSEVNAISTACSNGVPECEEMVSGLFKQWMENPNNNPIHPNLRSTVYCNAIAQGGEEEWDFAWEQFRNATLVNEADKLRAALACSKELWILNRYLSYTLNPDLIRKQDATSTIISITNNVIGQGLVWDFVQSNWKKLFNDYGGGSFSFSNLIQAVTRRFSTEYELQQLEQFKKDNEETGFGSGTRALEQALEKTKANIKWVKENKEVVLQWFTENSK
For the next series, the target named is Histone deacetylase 4 (Homo sapiens, UniProt P56524). Description: Inhibition of human HDAC4 using Boc-Lys (tri-fluoroacetyl)-AMC as substrate incubated for 1 hr followed by substrate addition and further incubated for 2 hrs by fluorescence assay.
Chain of Histone deacetylase 4 (P56524 whole entry): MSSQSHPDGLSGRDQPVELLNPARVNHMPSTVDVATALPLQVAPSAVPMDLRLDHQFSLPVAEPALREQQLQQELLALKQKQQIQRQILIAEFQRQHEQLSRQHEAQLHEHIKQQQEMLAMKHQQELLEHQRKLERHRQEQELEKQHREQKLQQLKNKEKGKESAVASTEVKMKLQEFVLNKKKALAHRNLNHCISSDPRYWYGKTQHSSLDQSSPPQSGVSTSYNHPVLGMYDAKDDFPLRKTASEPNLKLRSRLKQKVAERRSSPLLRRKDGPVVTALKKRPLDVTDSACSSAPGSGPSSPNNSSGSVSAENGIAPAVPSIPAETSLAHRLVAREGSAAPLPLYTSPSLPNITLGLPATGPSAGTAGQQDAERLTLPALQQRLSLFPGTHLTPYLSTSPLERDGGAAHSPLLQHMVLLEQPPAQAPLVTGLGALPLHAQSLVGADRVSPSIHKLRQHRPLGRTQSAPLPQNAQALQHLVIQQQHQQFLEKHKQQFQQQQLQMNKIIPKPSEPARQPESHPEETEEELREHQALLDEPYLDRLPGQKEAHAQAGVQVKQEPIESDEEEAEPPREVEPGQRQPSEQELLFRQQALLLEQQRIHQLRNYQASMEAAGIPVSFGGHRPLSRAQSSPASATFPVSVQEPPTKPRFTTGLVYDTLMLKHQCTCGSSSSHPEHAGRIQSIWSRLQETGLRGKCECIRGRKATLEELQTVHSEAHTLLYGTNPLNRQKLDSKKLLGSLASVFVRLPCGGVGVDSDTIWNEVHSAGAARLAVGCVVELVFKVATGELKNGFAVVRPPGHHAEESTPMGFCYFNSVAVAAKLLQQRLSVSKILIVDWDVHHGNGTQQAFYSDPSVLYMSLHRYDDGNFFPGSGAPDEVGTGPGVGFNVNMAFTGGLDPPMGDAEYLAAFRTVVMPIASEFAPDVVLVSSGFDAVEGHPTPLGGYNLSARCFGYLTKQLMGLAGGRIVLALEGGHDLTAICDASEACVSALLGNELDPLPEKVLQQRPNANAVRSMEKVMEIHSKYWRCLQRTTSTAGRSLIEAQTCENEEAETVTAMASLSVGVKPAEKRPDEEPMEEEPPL
Series [2] can be described thus: Stability of compound in artificial gastric juice at 0.4 mg/mL measured after 24 hrs by HPLC analysis. Conditions: simulated gi fluid. It counts as ADME.
A short description of series [3]: Stability of compound in artificial intestinal juice at 0.4 mg/mL measured after 24 hrs by HPLC analysis. It counts as ADME. Conditions: simulated gi fluid.
Series [4] in a line: Stability of compound in human plasma at […] measured after 24 hrs by HPLC analysis. It counts as ADME, cell-free.
Another series has as its target Histone deacetylase 5 (Homo sapiens, UniProt Q9UQL6). Description: Inhibition of human HDAC5 using Boc-Lys (tri-fluoroacetyl)-AMC as substrate incubated for 1 hr followed by substrate addition and further incubated for 2 hrs by fluorescence assay.

Chain of Histone deacetylase 5 (Q9UQL6 whole entry): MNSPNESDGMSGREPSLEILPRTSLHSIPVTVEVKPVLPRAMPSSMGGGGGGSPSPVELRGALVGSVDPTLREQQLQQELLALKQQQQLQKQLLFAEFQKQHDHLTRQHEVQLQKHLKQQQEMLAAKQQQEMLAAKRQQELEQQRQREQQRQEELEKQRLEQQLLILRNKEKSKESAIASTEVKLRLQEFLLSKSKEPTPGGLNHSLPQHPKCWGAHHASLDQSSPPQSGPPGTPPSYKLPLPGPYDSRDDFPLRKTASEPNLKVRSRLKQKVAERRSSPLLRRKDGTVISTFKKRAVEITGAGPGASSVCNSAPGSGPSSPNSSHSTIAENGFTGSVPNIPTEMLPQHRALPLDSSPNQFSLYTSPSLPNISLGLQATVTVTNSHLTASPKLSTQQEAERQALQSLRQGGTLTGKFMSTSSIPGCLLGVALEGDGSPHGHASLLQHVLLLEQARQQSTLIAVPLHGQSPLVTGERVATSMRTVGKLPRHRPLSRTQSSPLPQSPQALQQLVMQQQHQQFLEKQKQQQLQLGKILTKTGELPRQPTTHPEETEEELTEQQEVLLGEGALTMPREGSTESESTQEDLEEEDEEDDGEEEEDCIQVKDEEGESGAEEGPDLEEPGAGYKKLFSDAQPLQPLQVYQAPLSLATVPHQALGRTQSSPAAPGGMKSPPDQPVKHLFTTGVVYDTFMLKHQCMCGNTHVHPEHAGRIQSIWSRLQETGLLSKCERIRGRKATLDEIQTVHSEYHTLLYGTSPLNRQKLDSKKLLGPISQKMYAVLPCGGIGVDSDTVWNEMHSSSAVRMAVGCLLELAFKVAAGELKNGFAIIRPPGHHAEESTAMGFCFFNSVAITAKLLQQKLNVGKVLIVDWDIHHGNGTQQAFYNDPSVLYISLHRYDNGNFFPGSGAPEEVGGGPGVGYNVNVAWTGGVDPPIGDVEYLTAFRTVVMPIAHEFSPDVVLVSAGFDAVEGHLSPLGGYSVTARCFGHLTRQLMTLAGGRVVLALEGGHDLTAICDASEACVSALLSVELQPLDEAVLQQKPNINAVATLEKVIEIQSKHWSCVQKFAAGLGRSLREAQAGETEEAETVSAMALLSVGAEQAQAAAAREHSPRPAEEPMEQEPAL

Turning to `CCCNNC(=O)c1ccc(CNC(=O)[C@H](CC(C)C)NC(=O)[C@@H](O)[C@H](N)Cc2ccccc2)cc1.Cl`, the IC50 in series [1] is more than 10 µM; against Histone deacetylase 7 it was more than 10 µM; on Aminopeptidase N, 340 nM; against Histone deacetylase 4, more than 10 µM; against Histone deacetylase 5 it was more than 10 µM. Further, the Stability entry in series [2], in series [3] and in series [4] was “Stable” each time.

In general, IC50 refers to the point on the concentration scale where inhibition reaches its midpoint. A lower IC50 goes with greater potency.
